# From article PMC8551122, “Characterization and Modeling of Thermostable GH50 Agarases from Microbulbifer elongatus PORT2” (Marine Biotechnology (New York, N.y.), 2021)
# Target: T1, AgaB50 (Microbulbifer elongatus, UniProt A0A516UX44)
# T1 construct: full-length precursor 769 aa; 26 N-terminal residues (SPII lipoprotein signal peptide) deleted; N-terminal His6 tag; E. coli BL21 (DE3), pFO4; about 82 kDa
# T1 sequence (A0A516UX44 1-743): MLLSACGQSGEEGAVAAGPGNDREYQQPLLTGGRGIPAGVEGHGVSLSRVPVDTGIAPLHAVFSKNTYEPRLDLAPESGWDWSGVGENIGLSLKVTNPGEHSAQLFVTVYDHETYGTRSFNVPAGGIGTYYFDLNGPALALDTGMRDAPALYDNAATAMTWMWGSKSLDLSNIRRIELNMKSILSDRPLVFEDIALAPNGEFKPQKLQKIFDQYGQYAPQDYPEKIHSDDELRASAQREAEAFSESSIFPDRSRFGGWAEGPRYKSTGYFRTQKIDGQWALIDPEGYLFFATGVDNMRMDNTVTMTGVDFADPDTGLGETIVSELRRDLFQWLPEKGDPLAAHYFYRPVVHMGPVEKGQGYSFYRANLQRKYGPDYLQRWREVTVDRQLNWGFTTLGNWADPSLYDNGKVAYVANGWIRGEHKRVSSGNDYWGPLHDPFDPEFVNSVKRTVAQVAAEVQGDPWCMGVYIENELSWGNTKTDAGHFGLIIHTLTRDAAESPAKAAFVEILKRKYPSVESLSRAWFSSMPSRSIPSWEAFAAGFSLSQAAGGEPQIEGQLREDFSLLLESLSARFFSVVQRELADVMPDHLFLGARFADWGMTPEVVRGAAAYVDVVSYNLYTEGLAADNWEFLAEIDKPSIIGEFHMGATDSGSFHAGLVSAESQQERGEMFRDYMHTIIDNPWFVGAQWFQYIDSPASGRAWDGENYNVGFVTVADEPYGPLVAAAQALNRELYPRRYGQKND
# Assay: HPLC-RID product analysis, end point
# Type: biochemical
# Conditions: […] in ultrapure water, […] °C, overnight
smiles,measurement,value
"OC[C@H]1O[C@@H](O[C@H]2[C@H]3OC[C@@H]2O[C@@H](O[C@H]2[C@@H](O)[C@@H](CO)O[C@@H](O[C@H]4[C@H]5OC[C@@H]4O[C@@H](O[C@H]4[C@@H](O)[C@@H](CO)O[C@@H](O[C@H]6[C@H]7OC[C@@H]6O[C@@H](O[C@H]6[C@@H](O)[C@@H](CO)OC(O)[C@@H]6O)[C@H]7O)[C@@H]4O)[C@H]5O)[C@@H]2O)[C@H]3O)[C@H](O)[C@@H](O[C@@H]2O[C@H]3CO[C@@H]([C@@H]2O)[C@@H]3O)[C@H]1O (stereo partly shown) [NA8, neoagarooctaose]","HPLC-RID product analysis, end point","AgaB50 was able to convert larger NAOS such as NA8, NA6, and NA4"
